This is an account of results in PubChem BioAssay (NCI).

Where “and” joins values, the source holds several entries; their conditions need not be identical. Identical values can stand only once.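 Cultured in 96-well plates, cells were exposed to test compound for 48 hours across five concentrations. Here, GI50 denotes the concentration required for 50% inhibition of growth. TGI: concentration producing complete growth inhibition.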

Holding throughout (experiment): DTP human tumour cell line panel, 48 h
Assay [1] has as its system T-47D breast.
Assay [2] deals with LOX IMVI melanoma.
In assay [3] the test system is M14 melanoma.
The test system of assay [4] is COLO 205 colon.
The subject of assay [5] is OVCAR-5 ovarian.
For assay [6], the system named is SR leukemia.
Assay [7] deals with K-562 leukemia.
For assay [8], the system named is MOLT-4 leukemia.
Assay [9] has as its system PC-3 prostate.
Assay [10] concerns SNB-75 CNS.

By GI50 is commonly meant the concentration at which growth is held to half of that of the control. The TGI is the concentration giving total growth inhibition. Higher therefore signals less potent growth arrest. As to `[CH3][Sn]([CH3])([CH3])[O]C(=O)C(O)c1ccccc1` (configuration not stated), the GI50 was 12.7 µM in assay [1]; 2.85 µM in assay [2]; 1.98 µM in assay [3]; 4.93 µM in [4]; 9.91 µM in assay [5]; 20.7 µM in assay [6]. Further, the GI50 in assay [7] is 5.27 µM; in assay [8], 4.86 µM; in assay [9] it was 2.4 µM; in assay [10], 5.61 µM. Besides, the TGI was greater than 100 µM in assay [1]; 8.53 µM in [2]; 4.15 µM in assay [3]; 23.7 µM in assay [4]; 76.4 µM in [5]; greater than 100 µM in [6]. Also, the TGI in [7] is greater than 100 µM; in assay [8], greater than 100 µM; in [9], greater than 100 µM; in assay [10] it was 54.3 µM.
For the molecule `Cc1ccc2c(n1)C(=O)C(Cl)=C(Nc1ccc(N3CCN(C)CC3)cc1)C2=O`, the GI50 in [2] is 1.78 µM; in assay [3] it was 1.84 µM; in [4] it was 1.77 µM; in assay [5], 1.82 µM; in [6], 2.78 µM; in assay [7] it was 2.72 µM. Also, the GI50 in assay [8] is 2.37 µM; in assay [9] it was 1.57 µM; in [10], 2.11 µM. For the same molecule, the TGI came to 3.22 µM in [2]; 3.32 µM in assay [3]; 3.27 µM in [4]; 3.34 µM in [5]; 9.06 µM in [6]; 8.92 µM in assay [7]. Further, the TGI in [8] was 5.78 µM; in assay [9], 3.16 µM; in assay [10] it was 8.53 µM.
On to `Cc1ccn2c(-c3csc(Nc4cccc(O)c4)n3)c(C)nc2c1`, for which the GI50 in assay [1] was 0.878 µM; in assay [3], 0.359 µM; in [4], 11.8 µM; in assay [5] it was 9.29 µM; in assay [6] it was 0.2 µM; in assay [7], 0.196 µM. Also, the GI50 was 0.591 µM in assay [8], 0.609 µM in assay [9] and 0.225 µM in [10]. Besides, the TGI is 10.8 µM in assay [1]; 18 µM in assay [3]; 26.3 µM in assay [4]; greater than 81.2 µM in assay [5]; greater than 38.2 µM in [7]; 27.9 µM in assay [8]. The TGI in assay [9] came out at 29.6 µM; in [10], 1.65 µM.
For `O=C(NCCSSCCNC(=O)/C(Cc1ccc(O)c(Br)c1)=N/O)/C(Cc1ccc(O)c(Br)c1)=N/O`, the TGI in assay [1] was found to be 13.1 µM; in [2], 3.31 µM; in assay [3], 7.22 µM; in [4], 6.82 µM; in assay [5] it was 13.5 µM; in [6], 7.08 µM. For the same molecule, the TGI in assay [7] is greater than 50 µM; in [8], 8.58 µM; in assay [9], 8.21 µM; in assay [10], greater than 13.6 µM.
Turning to `N#Cc1ccc(N2Cc3cc(Cl)ccc3OC3=C2C(=O)N(Cc2ccc(F)cc2)C3=O)cc1`, the GI50 in assay [1] is 0.502 µM; in [2] it was 0.453 µM; in assay [3], 2.81 µM; in assay [4], 1.57 µM; in assay [5], 0.737 µM; in assay [6] it was 0.275 µM. Besides, the GI50 in assay [7] is 0.313 µM; in [8], 0.291 µM; in assay [9] it was 0.8 µM; in [10], 0.558 µM. Besides, the TGI in assay [1] is 1.18 µM; in [2] it was 0.908 µM; in assay [3] it was 9.33 µM; in assay [4] it was 3.65 µM; in [5], 1.93 µM; in assay [6], 1.12 µM. The TGI in assay [7] is 1.68 µM; in [8] it was 1.26 µM; in assay [9], 2.5 µM; in assay [10], 1.72 µM.
Take `COc1cc(C2CC(=O)c3c(C)nn(-c4nc5ccccc5[nH]4)c3C2)cc(OC)c1OC` (configuration not stated): the GI50 in assay [3] was greater than 100 µM; in assay [4], greater than 100 µM; in assay [5], greater than 100 µM; in [6], greater than 100 µM; in [9] it was greater than 100 µM; in [10] it was 1.72 µM. For the same molecule, the TGI is greater than 100 µM in assay [3]; greater than 100 µM in assay [4]; greater than 100 µM in assay [5]; greater than 100 µM in assay [6]; greater than 100 µM in assay [9]; 3.46 µM in assay [10].
For `Cc1cc2oc(=O)c(Cl)c(Cl)c2c(C)c1Cl`, the TGI in [1] is 40.2 µM; in [2], 8.84 µM; in assay [3], 22.4 µM; in assay [4], 8.09 µM; in [5] it was 27.8 µM; in assay [7], 4.39 µM. In addition, the TGI in assay [8] was 5.21 µM; in assay [9], 23.6 µM; in assay [10], 25.2 µM.
With `O=C(NC1CCNCC1)c1[nH]ncc1NC(=O)c1c(Cl)cccc1Cl`, the GI50 was 1.18 µM and 1.01 µM in assay [1]; 0.281 µM and 0.261 µM in assay [2]; 1.25 µM and 0.792 µM in assay [3]; 0.218 µM and 0.182 µM in [4]; 0.348 µM and 0.282 µM in assay [5]; 0.476 µM and 0.403 µM in assay [7]. Further, the GI50 in [8] is 0.357 µM and 0.329 µM; in assay [9], 0.332 µM and 0.323 µM; in assay [10], 0.249 µM and 0.218 µM. Also, the concentration for total growth inhibition (TGI) is greater than 100 µM in assay [1]; greater than 100 µM in [2]; 7.06 µM and 6.17 µM in assay [3]; 0.558 µM and 0.726 µM in assay [4]; greater than 100 µM in assay [5]; greater than 100 µM in assay [7]. Further, the TGI was 1.49 µM and > 10 µM in [8]; 5.01 µM and > 10 µM in assay [9]; 0.766 µM and 0.674 µM in assay [10].
For the molecule `C=C1C(=O)O[C@H]2[C@H]1CC/C(COC(=O)c1cccc3ccccc13)=C\CC[C@@]1(C)O[C@@H]21`, the GI50 in assay [2] is 1.35 µM; in assay [3], 1.42 µM; in assay [4], 1.64 µM; in [5] it was 2.27 µM; in assay [6], 0.363 µM; in [7], 1.98 µM. The GI50 in assay [8] is 2.95 µM; in assay [9] it was 1.57 µM; in assay [10], 3.04 µM. The TGI in [2] was 2.8 µM; in assay [3], 3.21 µM; in [4] it was 3.16 µM; in assay [5], 5.58 µM; in assay [6], greater than 100 µM; in [7] it was 14.7 µM. The TGI is 12.8 µM in assay [8], 3.14 µM in assay [9] and 13.3 µM in assay [10].
